EC50 data for 3 molecules are collected here from PMC3679108, “A Novel Glucagon-Related Peptide (GCRP) and Its Receptor GCRPR Account for Coevolution of Their Family Members in Vertebrates” (PLoS ONE, 2013).

Peptide text beside a SMILES is read from it. A value given as a limit tells only on which side of the number the result lay.

What all share (assay type): cell-based
The target of one test is T1, huGCGR (Homo sapiens, UniProt P47871).
T1 construct: host or cells: HEK293T
Briefly: CRE-luc reporter assay, huGCGR. Conditions: Table 3, HEK293T, 6 h, mean ± S.E. of at least three independent experiments, NR = no response. On the technique in general: In a reporter assay the amount or activity of a reporter protein is the signal.

Another test has as its target T2, huGIPR (Homo sapiens, UniProt P48546).
T2 construct: expressed in transfected cells; host or cells: HEK293T
T2 sequence (P48546 22-466): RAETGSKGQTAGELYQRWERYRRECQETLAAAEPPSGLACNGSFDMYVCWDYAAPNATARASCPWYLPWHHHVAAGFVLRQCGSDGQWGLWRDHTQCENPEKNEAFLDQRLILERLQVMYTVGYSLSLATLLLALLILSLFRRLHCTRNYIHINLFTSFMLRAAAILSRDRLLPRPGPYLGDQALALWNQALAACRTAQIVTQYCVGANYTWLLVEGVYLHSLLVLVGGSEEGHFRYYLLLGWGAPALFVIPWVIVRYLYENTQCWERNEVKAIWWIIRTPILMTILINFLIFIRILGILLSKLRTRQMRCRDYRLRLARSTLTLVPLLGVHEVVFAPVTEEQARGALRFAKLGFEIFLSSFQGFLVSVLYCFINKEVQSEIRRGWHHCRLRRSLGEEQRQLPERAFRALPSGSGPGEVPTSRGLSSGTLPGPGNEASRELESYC
Kind of test: CRE-luc reporter assay, huGIPR. The settings on record: Table 3, HEK293T, 6 h, mean ± S.E. of at least three independent experiments, NR = no response.

The target of a further test is T3, huGLP2R (Homo sapiens, UniProt O95838).
T3 construct: host or cells: HEK293T
T3 sequence (O95838 1-553): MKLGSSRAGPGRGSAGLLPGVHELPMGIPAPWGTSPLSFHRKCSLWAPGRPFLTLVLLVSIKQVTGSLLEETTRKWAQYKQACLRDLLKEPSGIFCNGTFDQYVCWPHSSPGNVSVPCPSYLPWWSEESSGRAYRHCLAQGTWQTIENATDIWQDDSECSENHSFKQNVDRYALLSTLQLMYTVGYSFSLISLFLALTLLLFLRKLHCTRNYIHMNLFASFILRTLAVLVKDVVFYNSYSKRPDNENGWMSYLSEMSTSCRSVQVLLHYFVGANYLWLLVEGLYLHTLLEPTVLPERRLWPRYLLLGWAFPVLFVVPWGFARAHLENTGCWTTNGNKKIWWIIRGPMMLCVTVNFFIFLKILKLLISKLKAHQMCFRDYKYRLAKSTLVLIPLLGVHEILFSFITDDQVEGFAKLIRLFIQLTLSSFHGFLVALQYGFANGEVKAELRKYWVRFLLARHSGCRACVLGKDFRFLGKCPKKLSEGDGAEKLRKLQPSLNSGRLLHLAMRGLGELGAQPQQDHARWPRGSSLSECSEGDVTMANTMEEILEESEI
Briefly: CRE-luc reporter assay, huGLP2R. Conditions: Table 3, HEK293T, 6 h, mean ± S.E. of at least three independent experiments, NR = no response.

The next test deals with huGLP1R (Homo sapiens, UniProt P43220). Kind of test: CRE-luc reporter assay, huGLP1R. Conditions: Table 3, HEK293T, 6 h, mean ± S.E. of at least three independent experiments.
huGLP1R, sequence (P43220 24-463): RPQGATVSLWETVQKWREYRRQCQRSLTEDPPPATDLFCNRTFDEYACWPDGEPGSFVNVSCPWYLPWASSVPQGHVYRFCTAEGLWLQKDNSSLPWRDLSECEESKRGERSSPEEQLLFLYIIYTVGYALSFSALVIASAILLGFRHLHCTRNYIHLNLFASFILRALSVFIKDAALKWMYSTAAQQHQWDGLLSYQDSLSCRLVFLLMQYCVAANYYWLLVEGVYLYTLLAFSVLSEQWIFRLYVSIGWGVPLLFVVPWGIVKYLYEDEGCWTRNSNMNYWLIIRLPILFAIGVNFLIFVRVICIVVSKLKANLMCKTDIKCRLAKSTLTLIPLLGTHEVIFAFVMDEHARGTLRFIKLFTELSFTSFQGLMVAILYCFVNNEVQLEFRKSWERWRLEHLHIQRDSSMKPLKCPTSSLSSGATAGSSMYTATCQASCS

T1 sequence (P47871 26-477): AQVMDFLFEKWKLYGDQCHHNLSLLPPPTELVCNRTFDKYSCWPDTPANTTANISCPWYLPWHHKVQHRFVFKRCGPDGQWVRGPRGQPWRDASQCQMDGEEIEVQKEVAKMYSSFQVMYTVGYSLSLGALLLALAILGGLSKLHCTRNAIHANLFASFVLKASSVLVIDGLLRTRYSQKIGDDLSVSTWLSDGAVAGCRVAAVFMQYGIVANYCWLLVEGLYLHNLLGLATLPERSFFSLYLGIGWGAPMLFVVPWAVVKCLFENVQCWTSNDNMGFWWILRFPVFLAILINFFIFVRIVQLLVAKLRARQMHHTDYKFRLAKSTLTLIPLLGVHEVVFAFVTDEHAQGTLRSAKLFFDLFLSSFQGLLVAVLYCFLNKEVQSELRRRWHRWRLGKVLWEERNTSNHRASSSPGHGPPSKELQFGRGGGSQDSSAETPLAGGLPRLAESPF

Usually EC50 stands for the concentration needed to bring the measured effect to its halfway point. A low value points to a more potent agent. For the molecule `CC[C@H](C)[C@H](NC(=O)[C@H](CC(C)C)NC(=O)[C@H](Cc1c[nH]c2ccccc12)NC(=O)[C@H](Cc1c[nH]cn1)NC(=O)[C@@H](NC(=O)[C@H](Cc1ccccc1)NC(=O)[C@H](CC(=O)O)NC(=O)[C@H](CCCCN)NC(=O)[C@H](C)NC(=O)[C@H](CCCCN)NC(=O)[C@H](CCSC)NC(=O)[C@H](CCCCN)NC(=O)[C@H](CC(=O)O)NC(=O)[C@H](CC(C)C)NC(=O)[C@H](Cc1ccc(O)cc1)NC(=O)[C@H](CCCNC(=N)N)NC(=O)[C@@H](NC(=O)[C@H](Cc1ccccc1)NC(=O)[C@H](CC(=O)O)NC(=O)[C@H](CO)NC(=O)[C@@H](NC(=O)[C@H](Cc1ccccc1)NC(=O)[C@@H](NC(=O)CNC(=O)[C@H](CCC(=O)O)NC(=O)[C@H](CO)NC(=O)[C@@H](N)Cc1c[nH]cn1)[C@@H](C)O)[C@@H](C)O)[C@@H](C)O)C(C)C)C(=O)N[C@@H](CC(N)=O)C(=O)N[C@H](C(=O)O)[C@@H](C)O` [chGCRP] (H-HSEGTFTSDFTRYLDKMKAKDFVHWLINT-OH), the EC50 on huGCGR is 42.7 ± 14.5 nM; at huGIPR, more than 10 µM; at huGLP2R, 0.592 ± 0.127 µM; at huGLP1R, 48.9 ± 9.15 nM.

`CC[C@H](C)[C@H](NC(=O)[C@H](C)NC(=O)[C@H](C)NC(=O)[C@H](CC(C)C)NC(=O)[C@H](Cc1c[nH]c2ccccc12)NC(=O)[C@H](CCC(=O)O)NC(=O)[C@@H](NC(=O)[C@H](Cc1ccccc1)NC(=O)[C@H](CC(N)=O)NC(=O)[C@H](CCCCN)NC(=O)[C@H](C)NC(=O)[C@H](CCCCN)NC(=O)[C@H](CCSC)NC(=O)[C@H](CCCCN)NC(=O)[C@H](CC(=O)O)NC(=O)[C@H](CC(C)C)NC(=O)[C@H](Cc1ccc(O)cc1)NC(=O)[C@H](CC(N)=O)NC(=O)[C@@H](NC(=O)[C@H](CC(C)C)NC(=O)[C@H](CC(=O)O)NC(=O)[C@H](CO)NC(=O)[C@@H](NC(=O)[C@H](Cc1ccccc1)NC(=O)[C@H](CCSC)NC(=O)CNC(=O)[C@H](CC(=O)O)NC(=O)[C@@H](NC(=O)[C@@H](N)Cc1c[nH]cn1)[C@@H](C)O)[C@@H](C)O)[C@@H](C)O)C(C)C)C(=O)N[C@@H](CCCCN)C(=O)N[C@@H](CCC(N)=O)C(=O)N[C@@H](CCC(N)=O)C(=O)N[C@@H](CCC(=O)O)C(=O)O` [mdGCRP] (H-HTDGMFTSDLTNYLDKMKAKNFVEWLAAIKQQE-OH): the EC50 at huGCGR was 175 ± 41.8 nM; at huGIPR, more than 10 µM; at huGLP2R, more than 10 µM; at huGLP1R, 156 ± 32.8 nM.

With `CSCC[C@H](NC(=O)[C@H](CC(C)C)NC(=O)[C@H](Cc1c[nH]c2ccccc12)NC(=O)[C@H](CCC(N)=O)NC(=O)[C@@H](NC(=O)[C@H](Cc1ccccc1)NC(=O)[C@H](CC(=O)O)NC(=O)[C@H](CCCCN)NC(=O)[C@H](C)NC(=O)[C@H](CCCCN)NC(=O)[C@H](CCSC)NC(=O)[C@H](CCCCN)NC(=O)[C@H](CC(=O)O)NC(=O)[C@H](CC(C)C)NC(=O)[C@H](Cc1ccc(O)cc1)NC(=O)[C@H](CCCNC(=N)N)NC(=O)[C@@H](NC(=O)[C@H](CC(C)C)NC(=O)[C@H](CC(=O)O)NC(=O)[C@H](CO)NC(=O)[C@H](CO)NC(=O)[C@H](Cc1ccccc1)NC(=O)[C@@H](NC(=O)CNC(=O)[C@H](CCC(=O)O)NC(=O)[C@H](CO)NC(=O)[C@@H](N)Cc1c[nH]cn1)[C@@H](C)O)[C@@H](C)O)C(C)C)C(=O)N[C@@H](CC(N)=O)C(=O)O` [xeGCRP] (H-HSEGTFSSDLTRYLDKMKAKDFVQWLMN-OH), the EC50 on huGCGR is 182 ± 39.5 nM; on huGIPR it was more than 10 µM; at huGLP2R, more than 10 µM; at huGLP1R, more than 1000 nM.
